Assay results published in BindingDB's records for doi:10.1021/jm801327q (Cnrs, 2009).
pEC50, pKi: −log10 of the molar value.

What was measured:
[1] = molecular target: 5-hydroxytryptamine receptor 4 (Homo sapiens, UniProt Q13639); assay: Radioligand Binding Assay (Ki) and cAMP Accumulation Assay (EC50); conditions: pH 7.4; 25 °C
Protocol: Nonspecific binding was determined with 10 uM GR113808. After incubation, the reaction was terminated by filtration through Whatman GF/B. Radioactivity was measured using a Beckman model LS6500C liquid scintillation counter. Binding data are expressed as a percentage of displacement for the screening of the library compounds. For selected compounds, Ki were analyzed by computer-assisted nonlinear regression analysis (Prism, Graphpad Software, San Diego, CA). EC50 values correspond to the concentration of agonists required to obtain half maximal stimulation of adenylyl cyclase. […] The data are the results of two or three independent determinations performed in triplicate.

[2] = molecular target: Amyloid-beta precursor protein (Homo sapiens) (UniProt P05067); assay: EC/IC50 was the effective concentration of agonist inhibiting the formation of A-beta fibrils to 50% of the control value. Three independent measurements were made for all cases.
Amyloid-beta precursor protein (Homo sapiens), sequence (P05067 whole entry, looked up): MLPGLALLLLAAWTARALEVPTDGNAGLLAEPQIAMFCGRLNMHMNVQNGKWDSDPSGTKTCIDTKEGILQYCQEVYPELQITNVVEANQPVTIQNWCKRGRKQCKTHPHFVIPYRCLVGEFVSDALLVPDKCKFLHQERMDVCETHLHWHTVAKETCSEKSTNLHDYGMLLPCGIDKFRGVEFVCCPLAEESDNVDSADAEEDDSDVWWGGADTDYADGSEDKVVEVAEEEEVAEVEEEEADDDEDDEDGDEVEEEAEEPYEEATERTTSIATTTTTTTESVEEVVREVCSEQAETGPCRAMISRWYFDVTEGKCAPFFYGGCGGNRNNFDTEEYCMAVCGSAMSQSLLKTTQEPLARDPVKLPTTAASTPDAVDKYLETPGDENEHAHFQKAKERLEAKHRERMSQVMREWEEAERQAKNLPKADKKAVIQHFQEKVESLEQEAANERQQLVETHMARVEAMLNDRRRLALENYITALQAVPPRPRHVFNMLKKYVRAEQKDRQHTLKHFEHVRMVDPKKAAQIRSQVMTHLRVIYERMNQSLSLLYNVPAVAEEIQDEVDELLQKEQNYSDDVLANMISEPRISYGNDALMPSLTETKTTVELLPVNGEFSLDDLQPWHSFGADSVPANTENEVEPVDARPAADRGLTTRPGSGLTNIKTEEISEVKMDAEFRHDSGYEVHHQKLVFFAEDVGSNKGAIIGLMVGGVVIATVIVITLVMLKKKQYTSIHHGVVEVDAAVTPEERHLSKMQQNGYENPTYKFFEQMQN

5-hydroxytryptamine receptor 4, sequence (Q13639 whole entry): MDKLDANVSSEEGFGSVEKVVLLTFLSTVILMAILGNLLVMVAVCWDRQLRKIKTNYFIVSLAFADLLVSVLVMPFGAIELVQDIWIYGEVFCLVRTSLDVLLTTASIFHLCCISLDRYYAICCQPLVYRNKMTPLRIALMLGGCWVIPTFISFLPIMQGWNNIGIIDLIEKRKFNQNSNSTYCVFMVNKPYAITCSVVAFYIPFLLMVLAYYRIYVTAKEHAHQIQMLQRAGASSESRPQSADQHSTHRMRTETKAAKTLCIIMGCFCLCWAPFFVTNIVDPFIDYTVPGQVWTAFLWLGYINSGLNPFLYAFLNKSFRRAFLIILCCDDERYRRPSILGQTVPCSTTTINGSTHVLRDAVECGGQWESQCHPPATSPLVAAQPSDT

pEC50 [1] | pKi [1] | pEC50 [2] | SMILES
8.40 | 6.95 |  | COc1cc(N)c(Cl)cc1C(=O)OCCN1CCC(NC(=O)CCCCCN2C(=O)c3cccc4c(N)ccc(c34)C2=O)CC1 [ML10302 scaffold, 9{a;y}]
 |  | 5.05 | COc1cc(N)c(Cl)cc1C(=O)OCCN1CCC(NC(=O)CCCNCCCc2ccc(CCCNCCCC(=O)NC3CCN(CCOC(=O)c4cc(Cl)c(N)cc4OC)CC3)cc2)CC1 [ML10302 scaffold, 14]
